Measured values from patent publication US20250092054A1, “FUSED PYRIDINES FOR CONTROLLING INVERTEBRATE PESTS” (FMC Corporation, priority 2021, published 2025).
Like-named read-outs stand apart in the source and are kept apart here.

Columns and labels:
Type in all cases: in vivo
[1] = test system: potato leafhopper (Empoascafabae (Harris)); assay: Test D: control of potato leafhopper through contact and/or systemic means; conditions: 144 h
Method: (§1) Test compounds were formulated using a solution containing 10% acetone, 90% water and 300 ppm Activator 90® non-ionic surfactant (Loveland Products, Loveland, Colorado, USA). The formulated compounds were applied in 1 mL of liquid through an atomizer nozzle positioned 1.27 cm (0.5 inches) above the top of each test unit. Test compounds were sprayed at the rates indicated, and each test was replicated three times.
For evaluating control of potato leafhopper (Empoascafabae (Harris)) through contact and/or systemic means, the test unit consisted of a small open container with a 5-6-day-old Soleil bean plant (primary leaves emerged) inside. White sand was added to the top of the soil, and one of the primary leaves was excised prior to application of the test compound.
Test compounds were formulated and sprayed at 50 and 10 ppm. After spraying of the formulated test compound, the test units were allowed to dry for 1 hour before they were post-infested with 5 potato leafhoppers (18-to-21-day-old adults). A black, screened cap was placed on the top of the test unit, and the test units were held for 6 days in a growth chamber at 20° C. and 70% relative humidity. Each test unit was then visually assessed for insect mortality.

[2] = test system: cotton melon aphid (Aphis gossypii (Glover)); assay: Test F: control of cotton melon aphid through contact and/or systemic means; conditions: 144 h
Method: as §1
For evaluating control of cotton melon aphid (Aphis gossypii (Glover)) through contact and/or systemic means, the test unit consisted of a small open container with a 5-day-old okra plant inside. This was pre-infested with 30-40 insects on a piece of leaf according to the cut-leaf method, and the soil of the test unit was covered with a layer of sand.
Test compounds were formulated and sprayed at 50 and 10 ppm. After spraying, the test units were maintained in a growth chamber for 6 days at 19° C. and 70% relative humidity. Each test unit was then visually assessed for insect mortality.

[3] = test system: green peach aphid (Myzus persicae (Sulzer)); assay: Test E: control of green peach aphid through contact and/or systemic means; conditions: 144 h
Method: as §1
For evaluating control of green peach aphid (Myzus persicae (Sulzer)) through contact and/or systemic means, the test unit consisted of a small open container with a 12-15-day-old radish plant inside. This was pre-infested by placing on a leaf of the test plant 30-40 aphids on a piece of leaf excised from a culture plant (cut-leaf method). The aphids moved onto the test plant as the leaf piece desiccated. After pre-infestation, the soil of the test unit was covered with a layer of sand.
Test compounds were formulated and sprayed at 50 and 10 ppm. After spraying of the formulated test compound, each test unit was allowed to dry for 1 hour and then a black, screened cap was placed on top. The test units were held for 6 days in a growth chamber at 19-21° C. and 50-70% relative humidity. Each test unit was then visually assessed for insect mortality.

[4] = test system: corn planthopper (Peregrinus maidis (Ashmead)); assay: Test C: control of corn planthopper through contact and/or systemic means; conditions: 144 h, corn plant post-infested with nymphs, assessed after 6 days; for mortality at 50 ppm: sprayed at 50 ppm
Method: as §1
For evaluating control of corn planthopper (Peregrinus maidis (Ashmead)) through contact and/or systemic means, the test unit consisted of a small open container with a 3-4-day-old corn (maize) plant inside. White sand was added to the top of the soil prior to application of the test compound.
Test compounds were formulated and sprayed at 50 and 10 ppm. After spraying of the formulated test compound, the test units were allowed to dry for 1 h before they were post-infested with ˜15-20 nymphs (18-to-21-day-old). A black, screened cap was placed on the top of each test unit, and the test units were held for 6 days in a growth chamber at 22-24° C. and 50-70% relative humidity. Each test unit was then visually assessed for insect mortality.

[5] = sprayed at 50 ppm, pre-infested okra plant, assessed after 6 days, read-out: mortality
[6] = sprayed at 50 ppm, pre-infested radish plant, assessed after 6 days, read-out: mortality
[7] = sprayed at 10 ppm, Soleil bean plant post-infested with adults, assessed after 6 days, read-out: mortality
[8] = sprayed at 50 ppm, Soleil bean plant post-infested with adults, assessed after 6 days, read-out: mortality

O=C(NC1CC1)c1cnc(C2=NOC(c3cc(Cl)cc(Cl)c3)(C(F)(F)F)C2)c2sccc12 (stereo not shown) [Compound 11, N-cyclopropyl-7-[5-(3,5-dichlorophenyl)-4,5-dihydro-5-(trifluoromethyl)-3-isoxazolyl]thieno[2,3-c]pyridine-4-carboxamide]
≥ 80%: mortality at 10 ppm [1] | mortality at 50 ppm [1]

O=C(NC1CC1)c1cnc(C2=NOC(c3cc(Cl)cc(Cl)c3)(C(F)(F)F)C2)c2ccsc12 (stereo not shown) [Compound 26, N-cyclopropyl-4-[5-(3,5-dichlorophenyl)-4,5-dihydro-5-(trifluoromethyl)-3-isoxazolyl]thieno[3,2-c]pyridine-7-carboxamide]
≥ 80%: mortality at 50 ppm [1]

O=C(NCC1CC1)c1ncc(C2=NOC(c3cc(Cl)c(F)c(Cl)c3)(C(F)(F)F)C2)c2ccoc12 (stereo not shown) [Compound 14, N-(cyclopropylmethyl)-4-[5-(3,5-dichloro-4-fluorophenyl)-4,5-dihydro-5-(trifluoromethyl)-3-isoxazolyl]furo[2,3-c]pyridine-7-carboxamide]
≥ 80%: mortality at 10 ppm [1] | mortality at 50 ppm [1]

CNC(=O)[C@@H](C)NC(=O)c1ncc(C2=NOC(c3cc(Cl)c(F)c(Cl)c3)(C(F)(F)F)C2)c2c1CCC2 (stereo partly drawn) [Compound 30, 4-[5-(3,5-dichloro-4-fluorophenyl)-4,5-dihydro-5-(trifluoromethyl)-3-isoxazolyl]-6,7-dihydro-N-[(1R)-1-methyl-2-(methylamino)-2-oxoethyl]-5H-cyclopenta[c]pyridine-1-carboxamide]
≥ 80%: mortality at 50 ppm [2]

O=C(NC1CSC1)c1cnc(C2=NOC(c3cc(Cl)cc(Cl)c3)(C(F)(F)F)C2)c2ccsc12 (stereo not shown) [Compound 27, 4-[5-(3,5-dichlorophenyl)-4,5-dihydro-5-(trifluoromethyl)-3-isoxazolyl]-N-3-thietanylthieno[3,2-c]pyridine-7-carboxamide]
≥ 80%: mortality at 50 ppm [1]

O=C(NC1CC1)c1ncc(C2=NOC(c3cc(Cl)c(F)c(Cl)c3)(C(F)(F)F)C2)c2ccoc12 (stereo not shown) [Compound 13, N-cyclopropyl-4-[5-(3,5-dichloro-4-fluorophenyl)-4,5-dihydro-5-(trifluoro-methyl)-3-isoxazolyl]furo[2,3-c]pyridine-7-carboxamide]
≥ 80%: mortality at 50 ppm [2] | mortality at 50 ppm ([3]; in Raphanus sativus) | mortality at 10 ppm [1] | mortality at 50 ppm [1]

CNC(=O)[C@@H](C)NC(=O)c1cnc(C2=NOC(c3cc(Cl)cc(Cl)c3)(C(F)(F)F)C2)c2sccc12 (stereo partly drawn) [Compound 7, 7-[5-(3,5-dichlorophenyl)-4,5-dihydro-5-(trifluoromethyl)-3-isoxazolyl]-N-[(1R)-1-methyl-2-(methylamino)-2-oxo-ethyl]thieno[2,3-c]pyridine-4-carboxamide]
≥ 80%: mortality at 50 ppm [2] | mortality at 50 ppm ([3]; in Raphanus sativus) | mortality at 10 ppm [1] | mortality at 50 ppm [1]

CC(=O)NCc1ncc(C2=NOC(c3cccc(C(F)(F)F)c3)(C(F)(F)F)C2)c2ccoc12 (stereo not shown) [Compound 1, N-[[4-[4,5-dihydro-5-(trifluoromethyl)-5-[3-(trifluoromethyl)phenyl]-3-isoxazolyl]furo[2,3-c]pyridin-7-yl]methyl]acetamide]
≥ 80%: mortality at 50 ppm [2, 5] | mortality at 50 ppm [4] | mortality at 50 ppm [3, 6] | mortality at 10 ppm [1, 7] | mortality at 50 ppm [1, 8]

CCC(=O)NCc1ncc(C2=NOC(c3cccc(C(F)(F)F)c3)(C(F)(F)F)C2)c2ccoc12 (stereo not shown) [Compound 23, N-[[4-[4,5-dihydro-5-(trifluoromethyl)-5-[3-(trifluoromethyl)phenyl]-3-isoxazolyl]furo[2,3-c]pyridin-7-yl]methyl]propanamid]
≥ 80%: mortality at 10 ppm ([2]; sprayed at 10 ppm, pre-infested okra plant, assessed after 6 days) | mortality at 50 ppm [2, 5] | mortality at 10 ppm ([4]; sprayed at 10 ppm) | mortality at 50 ppm [4] | mortality at 10 ppm ([3]; sprayed at 10 ppm, pre-infested radish plant, assessed after 6 days) | mortality at 50 ppm [3, 6] | mortality at 10 ppm [1, 7] | mortality at 50 ppm [1, 8]
